From US6365616B1, “Methimazole derivatives and tautomeric cyclic thiones to treat autoimmune diseases” (Sentron Medical, Inc., priority 1998, dated 2002)
Where two headings read alike, the source gives them in different places.

Experiments:
[1] = tested on: swine class I promoter (PD1); assay: Luciferase assay, FRTL-5 cells stably transfected with class I promoter-luciferase chimeras; assay type: cell-based; conditions: for inhibition at 1000 µM: 1.0 mM
Source text: The swine PD1 5′-flanking sequence-CAT chimeras (−1100, −203, and −127), as well as two mutants with the CRE site with −107 to −100 bp deleted (−203ΔCRE and −127ΔCRE) were used to create luciferase reporter gene constructs. The inserts were released by restriction enzyme digestion, purified from agarose gel using QIAEX (QIAGEN, Chatsworth, Calif.) and ligated in the NheI-HindIII site of the PGL-2 basic vector (PROMEGA, Madison, Wis.) using a DNA ligation kit from TAKARA biomedicals (TAKARA SHUZO Co). JM109 bacterial competent cells (PROMEGA, Madison, Wis.) were transformed with the ligation reaction and plated in agar plates for 12 h at 37° C. The colonies were picked and screened with minipreps using QIAprep spin plasmid kit (QIAGEN, Chatsworth, Calif.) and restriction enzyme digestion. The plasmids were then purified by CsCl gradient centrifugation.
(§1) The PD1-PGL-2 basic constructs and the Class II-PGL-2 basic constructs were stably transfected in the FRTL-5 cells using a Lipofectamine (GIBCO, Life Technologies, Inc.) method. Near confluent cells in 6H medium were cotransfected with 20 μg of plasmid DNA and 2 μg of a pcDNA3neo or a pPUR selection vector (CLONTECH, Palo Alto, Calif.). After 24-48 hours, 400 μg/ml of G418 (GIBCO, Life Technologies, Inc.) or 10 μM of puromycin (SIGMA) were added to the medium. After 3 weeks the antibiotic-resistant colonies were cloned by limiting dilution and screened to determine their interferon sensitivity. At least 5 cell lines of each construct were isolated, each of whose activity was increased by adding 100 U/ml γ interferon to the medium of the cells. The following data (Tables 10-13) were obtained with one clone of each of the class I or class II-luciferase chimera, but were representative of at least three other clones of each.
(§2) Luciferase activity was measured using the Luciferase assay system (PROMEGA, Madison, Wis.). Briefly, treated or untreated cells from a 100 mm culture dish were washed with PBS, scraped and collected in microfuge tubes. The pellet was dissolved in 100 μl 1× reporter lysis buffer and incubated at room temperature for 15 minutes. Cells were frozen in dry ice plus ethanol and thawed in water at room temperature. After vortexing for 10 sec, tubes were centrifuged at 12,000×g for 5 min. Twenty μl of the supernatant were mixed with 100 μl of Luciferase assay reagent and immediately placed in a luminometer. Light was measured for a period of 10 sec after a 2 sec delay.
(§3) Treatment of cells, maintained either in the presence of TSH or its absence, with 100 U/ml interferon, increased class I and class II promoter activity (Table 10). In this experiment FRTL-5 cells were grown to 80% confluency in 6H medium with TSH then treated with 100 U/ml γ-interferon, 5 mM MMI or both together. Luciferase activity was measured after 40 hours as described. Several points are notable. First, interferon increases both class I and class II promoter activity in the stable transfectants. Second, MMI inhibits both interferon-increased class I and interferon-increased class II promoter activity.

[2] = tested on: HLA-DRα class II promoter; assay: Luciferase assay, FRTL-5 cells stably transfected with HLA-DRα class II promoter-luciferase chimeras; assay type: cell-based; conditions: 40 hours
Source text: Similarly, the HLA DRα promoter constructs, p(−176)CAT and p(−137)CAT, inserted into the pCAT-Basic vector were released by restriction enzyme digestion, purified from agarose gel using QIAEX (QIAGEN, Chatsworth, Calif.), and used as templates for the construction by PCR of inserts with a 5′ flanking Mlul restriction site. The PCR products were purified by phenol-chloroform extraction, digested with MluI and XbaI, purified from agarose gels using QIAEX (QIAGEN, Chatsworth, Calif.) and ligated in the MluI-NheI site of the PGL-2 basic vector (PROMEGA, Madison, Wis.) using the DNA ligation kit from TAKARA biomedicals (TAKARA SHUZO Co.). JM1I9 bacterial competent cells (PROMEGA, Madison, Wis.) were transformed with the ligation reaction and plated in agar plates for 12 h at 37° C. The colonies were picked and screened with minipreps using QIAprep spin plasmid kit (QIAGEN, Chatsworth, Calif.) and restriction enzyme digestion. The plasmids were then purified by CsCI gradient centrifugation.
as §1, §2, §3

[3] = tested on: Y box protein (TSEP-1) RNA; assay: Northern analysis of Y box protein (TSEP-1) RNA levels in FRTL-5 cells; assay type: cell-based, rat; conditions: 40 hours
Source text: Whereas γ-IFN decreases Y box protein RNA levels in FRTL-5 cells, MMI can reverse this action (FIG. 16). […] The rat TSEP-1 probe was the clone 31 insert, residues 5 to 1395 of the rat TSEP-1 nucleotide sequence reported (Ohmori, M., et al., ibid (1996)); rat β-actin was kindly provided by Dr. B. Paterson (NCI, Bethesda, Md.). Radiolabeling of all probes, hybridization (0.5-1.0×10^6cpm/ml), and washing were as described (Isozaki, O., et al., ibid (1989); Saji, M., et al., ibid (1992); Ohmori, M., et al., ibid (1996)).
The ability of the compounds to reverse the γ-IFN-induced decrease in TSEP-1 RNA levels is once again 10>11>7 or 8>2>MMI>3. This mimics data in all other assays.

[4] = Sus scrofa, FRTL-5, 6H medium, 40 hours, read-out: % inhibition of basal p(−203)LUC class I promoter activity
[5] = Sus scrofa, FRTL-5, 100 U/ml γ-interferon, 6H medium, 40 hours, read-out: % inhibition of IFN-increased p(−203)LUC class I promoter activity

`Cn1ccnc1S` [Compound 1, 1-Methylimidazole-2-thiol] was tested, and the “effect on basal p(−203) class I luciferase activity” value ([1]; 1 or 5 mM, stable transfectants) was “no significant effect”, the inhibition at 10 µM ([1]; Sus scrofa, FRTL-5, 10 μM, 100 U/ml γ-interferon, 6H medium, 40 hours, read-out: % inhibition of IFN-increased p(−203)LUC class I promoter activity) was 0% and the inhibition at 25 µM ([1]; Sus scrofa, FRTL-5, 25 μM, 6H medium, 40 hours, read-out: % inhibition of basal p(−203)LUC class I promoter activity) was 0%. For the same molecule, the inhibition at 100 µM [1, 4] was 0%, the inhibition at 100 µM [1, 5] was 0% and the inhibition at 1000 µM [1, 4] was 0%. For the same molecule, the inhibition at 1000 µM [1, 5] was 45 ± 10%, the “Luciferase activity + 5 mM MMI” value ([1]; Vector-LUC Control, 40 hours) was 100 ± 6 % Control and the “Luciferase activity +γ-IFN + 5 mM MMI” value ([1]; Vector-LUC Control, 40 hours) was 105 ± 5 % Control. For the same molecule, the “Luciferase activity + 5 mM MMI” value ([1]; p(−127) class I-LUC, 40 hours) was 135 ± 17 % Control, the “Luciferase activity +γ-IFN + 5 mM MMI” value ([1]; p(−127ΔCRE) class I-LUC, 40 hours) was 101 ± 4 % Control and the “Luciferase activity + 5 mM MMI” value ([1]; p(−203) class I-LUC, 40 hours) was 105 ± 38 % Control. The “Luciferase activity +γ-IFN + 5 mM MMI” value ([1]; p(−203ΔCRE) class I-LUC, 40 hours) was 106 ± 6 % Control, the inhibition at 10 µM ([2]; FRTL-5, 10 μM, 100 U/ml γ-interferon, 6H medium, read-out: % inhibition of IFN-increased p(−137)LUC class II promoter activity) was 0% and the inhibition at 100 µM ([2]; FRTL-5, 100 μM, 100 U/ml γ-interferon, 6H medium, read-out: % inhibition of IFN-increased p(−137)LUC class II promoter activity) was 0%. The inhibition at 1000 µM ([2]; FRTL-5, 1 mM, 100 U/ml γ-interferon, 6H medium, read-out: % inhibition of IFN-increased p(−137)LUC class II promoter activity) was 37 ± 10%, the “Luciferase activity + 5 mM MMI” value ([2]; −137 HLA-DRα-LUC) was 103 ± 6 % Control and the “Luciferase activity + 5 mM MMI” value ([2]; −167 HLA-DRα-LUC) was 99 ± 5 % Control. The “Y box protein (TSEP-1) RNA level, compound +γIFN” value (“Y box protein … compound +γIFN” for short) ([3]; 100 μM compound + γIFN) was 42 ± 7%, the “Y box protein (TSEP-1) RNA level, compound ALONE” value (shortened to “Y box protein … compound ALONE”) ([3]; 100 μM compound alone) was 105 ± 8% and the “Y box protein … compound +γIFN” value ([3]; 1 mM compound + γIFN) was 87 ± 7%. The “Y box protein … compound ALONE” value ([3]; 1 mM compound alone) was 104 ± 12%, the “Y box protein … compound +γIFN” value ([3]; 5 mM compound + γIFN) was 149 ± 12% and the “Y box protein … compound ALONE” value ([3]; 5 mM compound alone) was 115 ± 9%.

B1: γ-IFN: rat recombinant γ-interferon, 100 U/ml, used to increase MHC class I and class II expression in FRTL-5 cells (protein, UniProt P01581 23-156, looked up)
Interferon gamma: QGTLIESLESLKNYFNSSSMDAMEGKSLLLDIWRNWQKDGNTKILESQIISFYLRLFEVLKDNQAISNNISVIESHLITNFFSNSKAKKDAFMSIAKFEVNNPQIQHKAVNELIRVIHQLSPESSLRKRKRSRC
B1 was tested, and the “Luciferase activity +γ-IFN” value ([1]; Vector-LUC Control, 100 U/ml γ-interferon, 40 hours) was 102 ± 6 % Control, the “Luciferase activity +γ-IFN” value ([1]; p(−127) class I-LUC, 100 U/ml γ-interferon, 40 hours) was 180 ± 19 % Control and the “Luciferase activity +γ-IFN” value ([1]; p(−127ΔCRE) class I-LUC, 100 U/ml γ-interferon, 40 hours) was 92 ± 10 % Control. For the same molecule, the “Luciferase activity +γ-IFN” value ([1]; p(−203) class I-LUC, 100 U/ml γ-interferon, 40 hours) was 495 ± 30 % Control, the “Luciferase activity +γ-IFN” value ([1]; p(−203ΔCRE) class I-LUC, 100 U/ml γ-interferon, 40 hours) was 139 ± 16 % Control and the “Luciferase activity +γ-IFN” value ([2]; −137 HLA-DRα-LUC, 100 U/ml γ-interferon) was 695 ± 42 % Control. The “Luciferase activity +γ-IFN” value ([2]; −167 HLA-DRα-LUC, 100 U/ml γ-interferon) was 790 ± 45 % Control and the “Y box protein (TSEP-1) RNA level +γIFN, % Control” value ([3]; γ-IFN alone, 100 Units/ml) was 45 ± 6%.
